Experiments:
[1] = system: iagA′-lacZ fusion (S. typhi strain Ty267); assay: β-galactosidase activity of the iagA′-lacZ fusion in favourable LB medium; assay type: cell-based; conditions: for β-Galactosidase activity of the iagA′-lacZ fusion (Table VII): fatty acid as sodium salt, control 22022 ± 1177; for β-Galactosidase activity of the iagA′-lacZ fusion (Table VII) / inhibition of the expression of the iagA′-lacZ fusion in S. typhi (in words) / β-galactosidase activity of the iagA′-lacZ fusion (Table II): 5 mM in favourable LB medium, 6 hours at 37° C.; for inhibition of the expression of the iagA′-lacZ fusion in S. typhi (in words): sodium salt; for β-galactosidase activity of the iagA′-lacZ fusion (Table II): control 12134 ± 1811
Protocol: (§1) The favourable LB medium (high osmolarity and concentration of Ca^2+ions) was defined as being the standard LB medium modified so as to have a final NaCl concentration of 300 mM and a final Ca concentration of 5 mM.
Each of the strains described above was cultured at 37° C. on agar or in TCS broth. The P-galactosidase activity was determined using 4-methyl-umbelliferyl-p-D-galactopyranoside sold by the company Sigma, according to the technique of Klarsfeld et al. (Mol. Mibrobiol., 1994, 13, 585-597). The results, expressed in P-galactosidase units (fluorescence per hour and per OD600), represent the mean of the values obtained in at least three independent experiments. The standard deviations were less than 10% of the values presented. […]
The β-galactosidase activity of the iagA′-lacZ fusion was measured after incubation for 6 hours at 37° C. with shaking (200 rpm).
The S. typhi Ty267 strain (iagA′-lacZ fusion) was seeded into favourable LB medium and into favourable LB medium containing the fatty acid to be tested, in the form of its sodium salt, at the final concentration of 5 mM.

[2] = system: iagA′-lacZcat fusion in S. typhi strain Ty267; assay: "Biotype 100" plate screen for carbon-based substrates that repress the iagA′-lacZcat fusion (β-galactosidase activity); assay type: cell-based; conditions: "Biotype 100" cupule, amount of substrate not known; favourable LB medium; 36 hours at 37° C.; control cupule without substrate 11 250
Protocol: (§2) Each of the strains described above was cultured at 37° C. on agar or in TCS broth. The P-galactosidase activity was determined using 4-methyl-umbelliferyl-p-D-galactopyranoside sold by the company Sigma, according to the technique of Klarsfeld et al. (Mol. Mibrobiol., 1994, 13, 585-597). The results, expressed in P-galactosidase units (fluorescence per hour and per OD600), represent the mean of the values obtained in at least three independent experiments. The standard deviations were less than 10% of the values presented.
A “Biotype 100”® plate sold by the company BioMerieux is composed of 100 microcupules. Each micro-cupule contains a dehydrated carbon-based substrate, with the exception of the first cupule, which is a control without substrate (the amount of dehydrated substrate per cupule is not given by the manufacturer).
In the context of the present example, these plates were used to search for carbon-based compounds which would block the expression of the invasion genes in Salmonella.
For this, the S. typhi strain Ty267, which is a derivative of the parental strain Ty2 carrying the iagA′-lacZcat transcriptional fusion (Table I), was cultured in TCS broth for 18 hours at 37° C. with shaking (200 rpm).
This culture was then diluted 100-fold in favourable LB medium (0.6 ml of culture for 60 ml of favourable LB), and then this suspension was used immediately to seed the 100 cupules of a “Biotype 100”® plate, in a proportion of 450 μl of suspension per cupule.
After incubation for 36 hours in an incubator at 37° C., the activity of the iagA′-lacZcat fusion in the Ty267 strain was determined for the culture of each cupule.
By comparing the value of the P-galactosidase activity measured in a cupule containing a carbon-based substrate with that of the control cupule without substrate, it was possible to investigate whether a substrate had no effect on, activated or repressed the expression of the iagA′-lacZcat fusion.
The S. typhi strain Ty267 (iagA′-lacZ fusion), suspended in the favourable LB medium, was used to seed the “Biotype 100”® plates.
The β-galactosidase activity expressed by the iagA′-lacZ fusion was determined for the culture in each cupule. With respect to the β-galactosidase activity measured in the control cupule without substrate (11 250 β-galactosidase units), no substrate caused an increase in the expression of the iagA′-lacZ fusion.

Salmonellae = assay: Bactericidal or bacteriostatic effect on the Salmonellae at neutral pH; assay type: cell-based, Salmonella
[3] = system: Gram-positive or Gram-negative microorganisms; conditions: acid pH (free acid form); cited from earlier work
[4] = system: Gram-positive or Gram-negative bacteria; conditions: in vitro, concentration not given; cited from earlier work
[5] = system: invF′-lacZ fusion (S. typhi strain Ty272); assay: β-galactosidase activity of the invF′-lacZ fusion in favourable LB medium; assay type: cell-based; conditions: LB medium with 300 mM NaCl and 1 mM EGTA (depleted of divalent cations) versus favourable LB medium
Protocol: as §1, §2
(§3) For this, the S. typhi strains Ty267, Ty272 and Ty277, which carry the iagA′-lacZ, invF′-lacZ and sipB′-lacZ fusions, respectively, (see Table I), were cultured in the favourable LB or unfavourable LB medium.
(§4) The action of these two compounds on the expression of the iagA′-lacZ, invF′-lacZ and sipB′-lacZ fusions was studied by measuring the β-galactosidase activity expressed by these fusions as a function of the time of culturing (samples removed every two hours).

[6] = system: sipB′-lacZ fusion (S. typhi strain Ty277); assay: β-galactosidase activity of the sipB′-lacZ fusion in favourable LB medium; assay type: cell-based; conditions: LB medium with 300 mM NaCl and 1 mM EGTA (depleted of divalent cations) versus favourable LB medium
Protocol: as §1, §2, §3, §4

SMILES | β-Galactosidase activity of the iagA′-lacZ fusion (Table VII) [1] | inhibition of the expression of the iagA′-lacZ fusion in S. typhi (in words) [1] | other results
CCCCCCCCC(=O)O [Pelargonic acid] | 383 ± 54 β-galactosidase units | as strongly as sodium caprylate | –
O=C([O-])CCc1ccccc1.[Na+] [sodium 3-phenylpropionate] | – | inhibit | β-galactosidase activity expressed by the iagA′-lacZ fusion in the cupule [2]: 166 β-galactosidase units; β-galactosidase activity of the iagA′-lacZ fusion (Table II) [1]: 297 ± 95 β-galactosidase units; bactericidal or bacteriostatic effect on the Salmonellae (Salmonellae): none of these compounds has any significant bactericidal or bacteriostatic effect
CCCCCCC(=O)O [Oenanthic acid] | 525 ± 43 β-galactosidase units | as strongly as sodium caprylate | –
CCCCC(=O)O [Valeric acid] | 509 ± 91 β-galactosidase units | as strongly as sodium caprylate | –
NCCCCCCCC(=O)O [8-Aminocaprylic acid] | 18077 ± 1263 β-galactosidase units | totally blocks the inhibitory activity | –
O=C([O-])Cc1ccccc1.[Na+] [sodium phenylacetate] | – | inhibit | β-galactosidase activity expressed by the iagA′-lacZ fusion in the cupule [2]: 81 β-galactosidase units; β-galactosidase activity of the iagA′-lacZ fusion (Table II) [1]: 149 ± 24 β-galactosidase units; bactericidal or bacteriostatic effect on the Salmonellae (Salmonellae): none of these compounds has any significant bactericidal or bacteriostatic effect
CCCCCC(=O)O [Caproic acid] | 347 ± 21 β-galactosidase units | as strongly as sodium caprylate | –
CC(=O)O [Acetic acid] | 29265 ± 1692 β-galactosidase units | do not make it possible to inhibit | –
CCCCCC(=O)O [n-hexanoic acid] | – | – | bactericidal activity on a great variety of Gram-positive or Gram-negative microorganisms [3]: bactericidal activity
CCCCCCC(N)C(=O)O (stereo not shown) [2-Aminocaprylic acid] | 33149 ± 2520 β-galactosidase units | totally blocks the inhibitory activity | –
O=C(O)CCCCCCCO [8-Hydroxycaprylic acid] | 593 ± 49 β-galactosidase units | does not modify the expression | –
O=C([O-])CCCc1ccccc1.[Na+] [sodium 4-phenylbutyrate] | – | inhibited | β-galactosidase activity of the iagA′-lacZ fusion (Table II) [1]: 198 ± 32 β-galactosidase units; bactericidal or bacteriostatic effect on the Salmonellae (Salmonellae): none of these compounds has any significant bactericidal or bacteriostatic effect
CCCCCCCCCC(=O)O [decanoic acid] | – | – | bactericidal activity on a great variety of Gram-positive or Gram-negative microorganisms [3]: bactericidal activity
CCC(=O)O [Propionic acid] | 14650 ± 1333 β-galactosidase units | do not make it possible to inhibit | –
CCCCCCC(O)C(=O)O (stereo not shown) [2-Hydroxycaprylic acid] | 225 ± 72 β-galactosidase units | does not modify the expression | –
CCCCCCCC/C=C\CCCCCCCC(=O)O [oleic acid] | – | – | bacteriostatic or bactericidal effect on Gram-positive or Gram-negative bacteria [4]: very effective
O=C(O)CN(CCOCCOCCN(CC(=O)O)CC(=O)O)CC(=O)O [EGTA, ethylene glycol bis(β-aminoethyl ether) N,N,N′,N′-tetraacetic acid] | – | – | expression of the iagA′-lacZ fusion ([1]; LB medium with 300 mM NaCl and 1 mM EGTA (depleted of divalent cations) versus favourable LB medium): repression; expression of the invF′-lacZ fusion [5]: repression; expression of the sipB′-lacZ fusion [6]: repression
CCCC(=O)O [Butyric acid] | 21225 ± 1741 β-galactosidase units | do not make it possible to inhibit | –
CCCCC/C=C\C/C=C\CCCCCCCC(=O)O [linoleic acid] | – | – | bacteriostatic or bactericidal effect on Gram-positive or Gram-negative bacteria [4]: very effective
